Assay: Solid-form stability under stressed conditions (temperature/relative humidity)
Type: physicochemical
Details: for at least four weeks
Procedure: Form Z of acetic acid solvated hydrate of ponatinib hydrochloride is stable under stressed conditions of about 40° C./75% RH and about 25° C./97% RH for at least four weeks.

Cc1ccc(C(=O)Nc2ccc(CN3CCN(C)CC3)c(C(F)(F)F)c2)cc1C#Cc1cnc2cccnn12 [3-(imidazo[1,2-b]pyridazin-3-ylethynyl)-4-methyl-N-{4-[(4-methylpiperazin-1-yl)methyl]-3-(trifluoromethyl)phenyl}benzamide]
stability under stressed conditions (about 25° C./97% RH): stable | stability under stressed conditions (about 40° C./75% RH): stable

— patent US12030886B2, “Form of ponatinib” (MACFARLAN SMITH LIMITED, priority 2018, dated 2024)
